Values belong to the molecule of their own block, whether it stands above or below them.
How the values were obtained:
[1] = molecular target: Protein arginine N-methyltransferase 8 (Homo sapiens, UniProt Q9NR22); assay: Selectivity interaction (Scintillation proximity assays) EUB0000255b PRMT8
[2] = molecular target: Myosin light chain kinase, smooth muscle (Homo sapiens, UniProt Q15746); assay: Selectivity interaction (KinomeScan (DiscoverX)) EUB0000655a MYLK; details: at 10 µM
[3] = molecular target: Calcium/calmodulin-dependent protein kinase type II subunit delta (Homo sapiens) (UniProt Q13557); assay: Selectivity interaction (KinomeScan (DiscoverX)) EUB0001079a CAMK2D; details: at 1 µM
[4] = molecular target: Calcium/calmodulin-dependent protein kinase type II subunit gamma (Homo sapiens) (UniProt Q13555); assay: Selectivity interaction (KinomeScan (DiscoverX)) EUB0001079a CAMK2G; details: at 1 µM
[5] = molecular target: Serine/threonine-protein kinase pim-1 (Homo sapiens, UniProt P11309); assay: Selectivity interaction (KinomeScan (DiscoverX)) EUB0001079a PIM1; details: at 1 µM
[6] = test system: Epidermal growth factor receptor (Homo sapiens), P00533 [UNDEFINED MUTATION]; assay: Selectivity interaction (KinomeScan (DiscoverX)) EUB0000618a EGFR; details: at 10 µM
[7] = molecular target: Protein-tyrosine kinase 6 (Homo sapiens, UniProt Q13882); assay: Selectivity interaction (SelectScreen profiling (Invitrogen)) EUB0000607a PTK6; details: at 2 µM
[8] = molecular target: T1, Serine/threonine-protein kinase TBK1 (Homo sapiens) (UniProt Q9UHD2); assay: Selectivity interaction (SelectScreen profiling (Invitrogen)) EUB0000607a TBK1; details: at 2 µM
T1 sequence (whole entry): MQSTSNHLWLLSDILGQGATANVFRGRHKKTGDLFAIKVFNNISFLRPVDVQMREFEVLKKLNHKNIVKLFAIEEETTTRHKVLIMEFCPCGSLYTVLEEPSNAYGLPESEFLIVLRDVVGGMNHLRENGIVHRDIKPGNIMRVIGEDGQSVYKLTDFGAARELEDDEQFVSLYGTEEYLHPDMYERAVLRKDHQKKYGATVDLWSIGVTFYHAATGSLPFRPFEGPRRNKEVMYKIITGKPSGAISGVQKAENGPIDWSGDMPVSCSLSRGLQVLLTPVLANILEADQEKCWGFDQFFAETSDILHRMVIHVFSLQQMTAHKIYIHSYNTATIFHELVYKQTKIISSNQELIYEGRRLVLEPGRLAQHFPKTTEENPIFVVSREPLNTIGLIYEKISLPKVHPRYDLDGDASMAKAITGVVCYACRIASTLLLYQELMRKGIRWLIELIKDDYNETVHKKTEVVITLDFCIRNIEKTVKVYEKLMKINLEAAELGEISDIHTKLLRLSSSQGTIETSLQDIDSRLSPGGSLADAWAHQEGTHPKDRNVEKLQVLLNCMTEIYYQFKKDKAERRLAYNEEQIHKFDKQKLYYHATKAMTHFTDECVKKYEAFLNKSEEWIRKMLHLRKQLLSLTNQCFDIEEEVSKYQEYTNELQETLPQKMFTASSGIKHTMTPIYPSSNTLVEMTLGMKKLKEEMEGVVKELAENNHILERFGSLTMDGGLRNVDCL

[9] = molecular target: T2, Scaffold protein ILK (Homo sapiens) (UniProt Q13418); assay: Selectivity interaction (ActivX KiNativ screen (ex vivo kinase selectivity in human PBMCs)) EUB0001619a ILK; format: cell-based; details: PBMC, at 1 µM
T2 sequence (whole entry): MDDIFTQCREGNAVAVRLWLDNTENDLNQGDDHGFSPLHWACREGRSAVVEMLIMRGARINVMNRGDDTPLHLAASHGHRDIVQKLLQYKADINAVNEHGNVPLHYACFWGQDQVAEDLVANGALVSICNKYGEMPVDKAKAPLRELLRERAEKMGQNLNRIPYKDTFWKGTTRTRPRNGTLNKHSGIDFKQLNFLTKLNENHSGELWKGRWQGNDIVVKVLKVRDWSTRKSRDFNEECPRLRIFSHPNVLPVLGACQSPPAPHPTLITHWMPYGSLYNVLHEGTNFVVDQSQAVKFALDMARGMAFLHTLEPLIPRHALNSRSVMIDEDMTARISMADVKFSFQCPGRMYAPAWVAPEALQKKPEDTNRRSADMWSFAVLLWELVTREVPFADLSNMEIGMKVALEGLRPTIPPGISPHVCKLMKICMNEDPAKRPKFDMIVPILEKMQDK

[10] = molecular target: T3, Phosphatidylinositol 5-phosphate 4-kinase type-2 alpha (Homo sapiens) (UniProt P48426); assay: Selectivity interaction (ActivX KiNativ screen (ex vivo kinase selectivity in human PBMCs)) EUB0001619a PIP4K2A; format: cell-based; details: PBMC, at 1 µM
T3 sequence (whole entry): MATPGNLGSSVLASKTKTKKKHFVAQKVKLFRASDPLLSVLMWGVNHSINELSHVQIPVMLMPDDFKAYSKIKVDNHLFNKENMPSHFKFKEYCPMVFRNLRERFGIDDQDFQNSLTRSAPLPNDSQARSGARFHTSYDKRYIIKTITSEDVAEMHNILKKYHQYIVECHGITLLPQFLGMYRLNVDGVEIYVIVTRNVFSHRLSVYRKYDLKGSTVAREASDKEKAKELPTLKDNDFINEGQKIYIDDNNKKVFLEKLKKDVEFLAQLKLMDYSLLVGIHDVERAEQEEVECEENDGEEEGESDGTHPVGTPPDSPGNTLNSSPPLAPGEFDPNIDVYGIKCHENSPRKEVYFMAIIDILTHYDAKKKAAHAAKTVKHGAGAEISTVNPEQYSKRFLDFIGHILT

[11] = molecular target: Ribosomal protein S6 kinase alpha-4 (Homo sapiens) (UniProt O75676); assay: Selectivity interaction (KinomeScan (DiscoverX)) EUB0000045b RPS6KA4; details: at 1 µM
[12] = molecular target: Rho-associated protein kinase 2 (Homo sapiens, UniProt O75116); assay: Selectivity interaction (KinomeScan (DiscoverX)) EUB0000595a ROCK2; details: at 10 µM
[13] = molecular target: MAP/microtubule affinity-regulating kinase 3 (Homo sapiens) (UniProt P27448); assay: Selectivity interaction (ActivX KiNativ screen (kinase selectivity in THP-1 cell lysates)) EUB0000639a MARK3; format: subcellular; details: lysate, at 1 µM
[14] = molecular target: Cyclin-dependent kinase 17 (Homo sapiens) (UniProt Q00537); assay: Selectivity interaction (ActivX KiNativ screen (kinase selectivity in THP-1 cell lysates)) EUB0000639a CDK17; format: subcellular; details: lysate, at 0.01 µM
[15] = molecular target: Serine/threonine-protein kinase SIK1 (Homo sapiens) (UniProt P57059); assay: Selectivity interaction (ProQinase) EUB0000171b SIK1
[16] = test system: Tyrosine-protein kinase ABL1 (Homo sapiens), P00519 [H396P]; assay: Selectivity interaction (KinomeScan (DiscoverX)) EUB0001049a ABL1; details: at 1 µM
[17] = molecular target: Dual specificity tyrosine-phosphorylation-regulated kinase 1B (Homo sapiens, UniProt Q9Y463); assay: Selectivity interaction (KinomeScan (DiscoverX)) EUB0000666a DYRK1B; details: at 10 µM
Dual specificity tyrosine-phosphorylation-regulated kinase 1B, sequence (Q9Y463 whole entry, looked up): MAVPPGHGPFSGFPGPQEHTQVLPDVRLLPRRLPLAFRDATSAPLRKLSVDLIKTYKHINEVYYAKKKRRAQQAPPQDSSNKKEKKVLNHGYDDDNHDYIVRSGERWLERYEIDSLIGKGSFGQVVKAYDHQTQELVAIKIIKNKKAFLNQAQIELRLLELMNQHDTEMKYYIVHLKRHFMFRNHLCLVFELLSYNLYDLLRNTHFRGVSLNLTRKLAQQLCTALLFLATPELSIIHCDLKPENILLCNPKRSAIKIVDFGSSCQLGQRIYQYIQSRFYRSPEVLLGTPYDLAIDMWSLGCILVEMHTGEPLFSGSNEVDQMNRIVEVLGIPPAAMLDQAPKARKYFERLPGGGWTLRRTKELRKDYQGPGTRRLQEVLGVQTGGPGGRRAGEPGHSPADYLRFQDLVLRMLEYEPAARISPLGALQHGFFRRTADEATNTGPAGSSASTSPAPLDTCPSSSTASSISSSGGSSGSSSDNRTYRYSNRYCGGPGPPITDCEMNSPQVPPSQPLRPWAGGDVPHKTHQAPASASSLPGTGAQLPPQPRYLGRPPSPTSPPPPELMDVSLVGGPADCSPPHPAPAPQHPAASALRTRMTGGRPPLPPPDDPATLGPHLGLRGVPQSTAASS

Serine/threonine-protein kinase SIK1 (Homo sapiens), sequence (P57059 whole entry): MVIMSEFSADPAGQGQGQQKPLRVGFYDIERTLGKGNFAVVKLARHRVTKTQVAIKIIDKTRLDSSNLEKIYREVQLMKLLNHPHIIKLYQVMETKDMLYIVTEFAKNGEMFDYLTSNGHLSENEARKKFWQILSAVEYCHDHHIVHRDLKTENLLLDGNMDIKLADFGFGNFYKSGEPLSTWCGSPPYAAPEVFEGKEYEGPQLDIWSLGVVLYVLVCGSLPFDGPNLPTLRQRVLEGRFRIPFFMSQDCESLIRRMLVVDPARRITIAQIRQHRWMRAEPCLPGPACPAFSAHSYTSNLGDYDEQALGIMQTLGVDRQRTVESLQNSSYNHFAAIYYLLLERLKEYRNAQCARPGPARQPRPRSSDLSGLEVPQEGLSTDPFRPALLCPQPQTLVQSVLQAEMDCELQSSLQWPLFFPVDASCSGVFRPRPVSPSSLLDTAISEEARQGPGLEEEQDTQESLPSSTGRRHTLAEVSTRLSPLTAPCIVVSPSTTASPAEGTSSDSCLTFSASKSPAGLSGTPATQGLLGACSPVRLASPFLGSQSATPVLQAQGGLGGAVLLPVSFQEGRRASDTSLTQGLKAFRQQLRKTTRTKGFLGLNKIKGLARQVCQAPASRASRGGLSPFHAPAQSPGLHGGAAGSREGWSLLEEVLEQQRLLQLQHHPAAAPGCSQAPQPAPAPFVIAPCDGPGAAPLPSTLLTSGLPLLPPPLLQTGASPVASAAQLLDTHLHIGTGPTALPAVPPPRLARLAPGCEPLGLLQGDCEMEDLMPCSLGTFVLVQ
Protein arginine N-methyltransferase 8, sequence (Q9NR22 whole entry): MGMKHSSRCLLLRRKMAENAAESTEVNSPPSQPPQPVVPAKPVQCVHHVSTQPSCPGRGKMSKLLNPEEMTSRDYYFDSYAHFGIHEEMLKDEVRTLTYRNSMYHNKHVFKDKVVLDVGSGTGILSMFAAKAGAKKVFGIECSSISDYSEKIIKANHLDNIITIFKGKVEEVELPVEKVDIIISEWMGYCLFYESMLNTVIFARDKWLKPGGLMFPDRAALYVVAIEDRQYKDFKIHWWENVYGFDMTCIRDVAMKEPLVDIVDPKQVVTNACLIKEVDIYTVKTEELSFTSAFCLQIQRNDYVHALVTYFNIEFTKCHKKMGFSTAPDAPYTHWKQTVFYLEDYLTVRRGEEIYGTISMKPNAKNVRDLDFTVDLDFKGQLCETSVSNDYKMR
Myosin light chain kinase, smooth muscle, sequence (Q15746 whole entry): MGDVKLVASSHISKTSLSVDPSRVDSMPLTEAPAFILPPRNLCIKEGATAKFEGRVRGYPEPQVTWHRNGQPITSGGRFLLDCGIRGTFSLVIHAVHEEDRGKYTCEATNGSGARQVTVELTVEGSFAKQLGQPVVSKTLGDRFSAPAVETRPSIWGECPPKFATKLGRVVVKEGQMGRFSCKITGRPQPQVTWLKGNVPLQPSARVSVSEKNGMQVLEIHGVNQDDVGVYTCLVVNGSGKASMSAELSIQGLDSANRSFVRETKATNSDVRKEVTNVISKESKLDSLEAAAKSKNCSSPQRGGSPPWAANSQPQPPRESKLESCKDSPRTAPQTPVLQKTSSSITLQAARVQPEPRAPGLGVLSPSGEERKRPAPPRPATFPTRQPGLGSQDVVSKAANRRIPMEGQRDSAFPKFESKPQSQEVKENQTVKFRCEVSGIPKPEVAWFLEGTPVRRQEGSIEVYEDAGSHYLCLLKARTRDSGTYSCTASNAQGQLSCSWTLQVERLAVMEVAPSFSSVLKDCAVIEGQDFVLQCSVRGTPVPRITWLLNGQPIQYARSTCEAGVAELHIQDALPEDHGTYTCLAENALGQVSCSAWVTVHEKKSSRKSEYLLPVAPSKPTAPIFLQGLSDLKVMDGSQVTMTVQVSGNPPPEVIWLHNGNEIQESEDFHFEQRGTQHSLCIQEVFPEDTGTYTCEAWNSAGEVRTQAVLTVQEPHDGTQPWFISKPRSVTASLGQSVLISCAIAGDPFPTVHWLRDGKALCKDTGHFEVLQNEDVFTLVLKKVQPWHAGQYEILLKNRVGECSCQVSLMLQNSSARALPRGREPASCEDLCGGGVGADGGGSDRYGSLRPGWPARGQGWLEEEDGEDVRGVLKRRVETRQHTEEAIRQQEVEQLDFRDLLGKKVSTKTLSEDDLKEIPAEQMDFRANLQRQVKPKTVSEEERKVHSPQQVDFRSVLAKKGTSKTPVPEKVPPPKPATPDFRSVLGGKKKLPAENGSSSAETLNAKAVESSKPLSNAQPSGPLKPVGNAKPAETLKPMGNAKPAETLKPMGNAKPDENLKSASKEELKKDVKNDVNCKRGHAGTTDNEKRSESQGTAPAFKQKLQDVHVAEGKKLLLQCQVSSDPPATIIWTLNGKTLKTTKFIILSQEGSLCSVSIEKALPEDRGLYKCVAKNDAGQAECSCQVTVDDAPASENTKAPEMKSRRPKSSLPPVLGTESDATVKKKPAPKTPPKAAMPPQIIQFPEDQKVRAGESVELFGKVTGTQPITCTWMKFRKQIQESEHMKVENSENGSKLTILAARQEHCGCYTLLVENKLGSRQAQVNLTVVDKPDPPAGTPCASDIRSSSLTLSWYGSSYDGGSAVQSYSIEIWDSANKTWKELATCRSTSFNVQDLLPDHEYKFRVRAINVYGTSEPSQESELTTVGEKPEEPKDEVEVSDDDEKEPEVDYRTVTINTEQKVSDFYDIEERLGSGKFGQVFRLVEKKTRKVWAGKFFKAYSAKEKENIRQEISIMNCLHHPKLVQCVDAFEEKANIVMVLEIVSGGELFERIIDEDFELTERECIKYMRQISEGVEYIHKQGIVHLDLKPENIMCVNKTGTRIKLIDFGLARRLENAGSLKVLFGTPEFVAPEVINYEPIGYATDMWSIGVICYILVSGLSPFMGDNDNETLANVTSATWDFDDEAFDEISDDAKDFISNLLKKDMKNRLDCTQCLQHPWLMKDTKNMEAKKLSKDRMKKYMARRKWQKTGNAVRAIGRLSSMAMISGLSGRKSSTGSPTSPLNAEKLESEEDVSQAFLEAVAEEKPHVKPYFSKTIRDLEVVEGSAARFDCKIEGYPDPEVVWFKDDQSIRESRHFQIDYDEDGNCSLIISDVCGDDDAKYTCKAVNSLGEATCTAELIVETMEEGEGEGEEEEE
Calcium/calmodulin-dependent protein kinase type II subunit gamma (Homo sapiens), sequence (Q13555 whole entry): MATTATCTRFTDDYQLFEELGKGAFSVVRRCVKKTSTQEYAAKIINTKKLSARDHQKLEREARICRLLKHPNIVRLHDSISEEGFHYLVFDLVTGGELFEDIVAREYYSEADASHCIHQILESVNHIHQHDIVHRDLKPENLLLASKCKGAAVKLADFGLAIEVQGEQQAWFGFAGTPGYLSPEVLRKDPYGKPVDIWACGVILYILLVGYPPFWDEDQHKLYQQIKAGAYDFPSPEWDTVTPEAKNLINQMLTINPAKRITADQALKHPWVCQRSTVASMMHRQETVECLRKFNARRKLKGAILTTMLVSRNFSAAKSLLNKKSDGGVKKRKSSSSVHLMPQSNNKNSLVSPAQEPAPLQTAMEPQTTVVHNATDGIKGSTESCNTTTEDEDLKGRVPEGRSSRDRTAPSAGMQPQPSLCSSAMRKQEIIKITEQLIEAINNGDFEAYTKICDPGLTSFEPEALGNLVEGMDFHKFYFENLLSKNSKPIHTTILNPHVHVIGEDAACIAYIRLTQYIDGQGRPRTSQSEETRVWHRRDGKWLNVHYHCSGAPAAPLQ
Ribosomal protein S6 kinase alpha-4 (Homo sapiens), sequence (O75676 whole entry, looked up): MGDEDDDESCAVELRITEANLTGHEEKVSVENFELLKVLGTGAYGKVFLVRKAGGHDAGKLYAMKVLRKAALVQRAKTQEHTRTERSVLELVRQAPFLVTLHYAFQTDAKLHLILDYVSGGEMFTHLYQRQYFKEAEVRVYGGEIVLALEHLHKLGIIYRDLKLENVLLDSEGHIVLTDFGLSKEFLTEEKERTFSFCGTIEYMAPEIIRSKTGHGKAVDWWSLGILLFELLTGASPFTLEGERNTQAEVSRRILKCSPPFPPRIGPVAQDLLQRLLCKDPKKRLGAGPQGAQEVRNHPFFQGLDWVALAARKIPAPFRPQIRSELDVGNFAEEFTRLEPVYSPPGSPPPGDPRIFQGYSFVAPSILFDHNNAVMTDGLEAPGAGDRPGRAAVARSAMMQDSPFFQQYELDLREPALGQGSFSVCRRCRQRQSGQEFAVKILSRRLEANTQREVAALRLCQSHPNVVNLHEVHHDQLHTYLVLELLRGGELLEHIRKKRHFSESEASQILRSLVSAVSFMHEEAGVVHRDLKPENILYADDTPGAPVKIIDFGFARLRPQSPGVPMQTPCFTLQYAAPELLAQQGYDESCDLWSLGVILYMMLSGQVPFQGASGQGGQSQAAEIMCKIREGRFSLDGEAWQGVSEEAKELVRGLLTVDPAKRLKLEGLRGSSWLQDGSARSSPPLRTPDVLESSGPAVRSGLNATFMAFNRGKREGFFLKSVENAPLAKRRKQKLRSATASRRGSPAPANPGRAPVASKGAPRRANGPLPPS

Structure (SMILES): COCCN1CCC(c2cc(CN(C)C(=O)c3cccc(Oc4ccccc4)c3)ccn2)CC1
IC50 [1]: > 10 µM

Structure (SMILES): CN(C)CCOc1ccc(-c2nc(-c3ccncc3)c(-c3ccc4c(c3)CC/C4=N\O)[nH]2)cc1
% of control [2]: 51%

Structure (SMILES): Nc1cnc(N2CCc3cc(S(=O)(=O)Nc4c(F)cc(Cl)cc4F)cc(N4CCCC4=O)c32)nc1 [TP-020n]
% of control [3]: 100%
% of control [4]: 100%
% of control [5]: 88%

Structure (SMILES): O[C@H]1CC[C@H](Nc2ncc3nc(Nc4c(F)cc(F)cc4F)n([C@H]4CCOC4)c3n2)CC1
% of control [6]: 5.7%

Structure (SMILES): CNC(=O)Nc1ccc(-c2nc(N3CC4CCC(C3)O4)c3cnn(C4CCC5(CC4)OCCO5)c3n2)cc1
% of inhibition [7]: 8%
% of inhibition [8]: 2%

Structure (SMILES): N#Cc1cccc(-c2c[nH]c3ncnc(N4CCOCC4)c23)c1
% of inhibition [9]: -12%
% of inhibition [10]: 16%

Structure (SMILES): C=CC(=O)Nc1cc(-n2c(=O)ccc3cnc4ccc(-c5ccc(NS(C)(=O)=O)cc5)cc4c32)ccc1C
% of control [11]: 67%

Structure (SMILES): COCC(=O)NC/C=C/c1ccc2ncnc(Nc3ccc(Oc4ccc(C)nc4)c(C)c3)c2c1 [CP-724714]
% of control [12]: 100%

% of inhibition [13]: 21.6%
% of inhibition [14]: 16.3%
Structure (SMILES): CC[C@@H]1[C@H](F)C(=O)N[C@@H]1COc1nccc2cc(C(N)=O)c(OC)cc12 [ZIMLOVISERTIB]

% of control ([15]; at 1 µM): 107%
% of control ([15]; at 5 µM): 102%
Structure (SMILES): C=CC(=O)Nc1cccc(C(=O)Nc2ccc(Nc3cc(-c4[nH]c(SC)nc4C)ccn3)cc2)c1

Structure (SMILES): COc1cc(Nc2nc(C)cc(-c3cnn4nc(OC)ccc34)n2)cc(C(F)(F)F)c1
% of control [16]: 73%

Structure (SMILES): O=C(NOC[C@H](O)CO)c1ccc(F)c(F)c1Nc1ccc(I)cc1F
% of control [17]: 98%

From ChEMBL document CHEMBL5465560, “Selectivity Literature for EUbOPEN Chemogenomic Library” (2024)
